Molecules are shown by their SMILES. Like-named read-outs stand apart in the source and are kept apart here.

Experiment [1] concerns the target T1, full length recombinant Pim-2 protein (Homo sapiens, UniProt Q9P1W9).
T1 construct: by full length recombinant Pim-1, Pim-2, or Pim-3 protein; hexahistidine tag followed by a thrombin cleavage site (N); made in house; host or cells: Sf9 (baculovirus) or E. coli (pET28)
Briefly: Pim-2 enzyme assay (HTRF, phosphorylation of biotinylated-BAD (S112) peptide). The conditions noted are these: read-out: Pim2_IC50. Format: biochemical. A digest of the protocol: (§1)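 Each full-length human Pim enzyme phosphorylates a biotinylated BAD (S112) peptide, and the product is sensed by Eu anti-phospho-BAD antibody with streptavidin-APC after quenching with 3 mM EDTA. Conditions: 60 mM Hepes pH 7.0, 0.05% BSA, 2 mM DTT.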

The target in experiment [2] is T2, full length recombinant Pim-1 protein (Homo sapiens, UniProt P11309).
T2 construct: by full length recombinant Pim-1, Pim-2, or Pim-3 protein; hexahistidine tag followed by a thrombin cleavage site (N); made in house; host or cells: Sf9 (baculovirus) or E. coli (pET28)
T2 sequence (P11309 whole entry): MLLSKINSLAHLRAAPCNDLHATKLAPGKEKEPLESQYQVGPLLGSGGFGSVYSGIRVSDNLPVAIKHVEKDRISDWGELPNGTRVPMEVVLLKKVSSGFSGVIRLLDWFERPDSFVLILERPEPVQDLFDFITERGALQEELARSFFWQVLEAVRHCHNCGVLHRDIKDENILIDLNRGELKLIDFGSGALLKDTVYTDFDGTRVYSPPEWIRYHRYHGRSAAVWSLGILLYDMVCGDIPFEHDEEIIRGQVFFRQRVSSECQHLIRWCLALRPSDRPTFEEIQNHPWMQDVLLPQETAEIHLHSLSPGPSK
Briefly: Pim-1 enzyme assay (HTRF, phosphorylation of biotinylated-BAD (S112) peptide). It is filed as biochemical. As to conditions: read-out: Pim_1_IC50. The essentials: as §1

The target in experiment [3] is T3, Pim-1 stably transfected into the U2OS human osteogenic sarcoma line (Homo sapiens, UniProt P11309).
T3 construct: expressed in transfected cells; host or cells: U2OS human osteogenic sarcoma line
T3 sequence (P11309 whole entry): as above
Description: Pim cell assay, phospho-BAD normalized against total BAD, U2OS stably transfected with Pim-1. Format: cell-based. Here is the method:
(§2) The cell lines used in the assay were generated by the stable transfection of either Pim-1 or Pim-2 into the U2OS human osteogenic sarcoma line. The assay for determination of the Pim activity in the engineered U2OS cell lines measures levels of phospho-BAD normalized against total BAD protein levels. It was conducted as follows:
(§3) The adherent cells were dissociated from the flasks using non-enzymatic cell dissociation solution (Sigma # C5914). […] The cells were then incubated overnight at 37° C., 5% CO2.
(§4) In addition to the 10-point dosing curve of the test compound, DMSO alone was run as the high control.
(§5) This dilution in DMSO was then diluted again into cell growth medium. Aliquots (12 uL) of the compound diluted in growth medium were then transferred to the appropriate wells of the 96-well plates containing cells to yield a final DMSO concentration of 0.3%.
(§6) The cell plates containing lysis buffer were then immediately stored at −70° C.
(§7) These prepared lysates were then assayed for phospho and total BAD according to the manufacturer's protocols (Meso Scale Diagnostics, Cat# K15103C-3 & # K15103D-3). The plates were read on the MSD Sector Imager 6000, and results were calculated according to the assay protocols ((% Phosphoprotein=((2×Phospho signal)/(Phospho signal+Total signal))×100)).

In experiment [4] the target is T4, Pim-2 stably transfected into the U2OS human osteogenic sarcoma line (Homo sapiens, UniProt Q9P1W9).
T4 construct: expressed in transfected cells; host or cells: U2OS human osteogenic sarcoma line
T4 sequence (Q9P1W9 whole entry): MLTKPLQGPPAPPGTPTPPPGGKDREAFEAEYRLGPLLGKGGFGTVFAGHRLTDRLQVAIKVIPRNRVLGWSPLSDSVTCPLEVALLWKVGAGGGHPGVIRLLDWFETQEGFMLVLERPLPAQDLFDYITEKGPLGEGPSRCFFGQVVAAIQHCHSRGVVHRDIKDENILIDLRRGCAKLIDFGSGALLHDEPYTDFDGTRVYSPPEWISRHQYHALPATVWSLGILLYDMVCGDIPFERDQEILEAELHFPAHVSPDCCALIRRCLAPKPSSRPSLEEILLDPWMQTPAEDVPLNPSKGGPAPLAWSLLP
Description: Pim cell assay, phospho-BAD normalized against total BAD, U2OS stably transfected with Pim-2. Format: cell-based. The protocol:
as §2, §3, §4, §5, §6, §7

Where [5] appears, read: U2OS stably transfected with Pim-1, phospho-BAD normalized against total BAD, 29 min incubation, read-out: Pim1_Cell_IC50_.
The mark [6] stands for this setting: U2OS stably transfected with Pim-2, phospho-BAD normalized against total BAD, 29 min incubation, read-out: Pim2_Cell_IC50_.
Setting [7] is: U2OS cells stably transfected with Pim-1, phospho-BAD, high dose […], read-out: Pim1_Cell_IC50.
[8] abbreviates: U2OS cells stably transfected with Pim-2, phospho-BAD, high dose […], read-out: Pim2_Cell_IC50.

T1 sequence (Q9P1W9 whole entry): as above

Take `CC(C)Oc1cncc(-c2ccc3[nH]cc(-c4nnc(N5CCC[C@H](N)C5)o4)c3c2)n1` [Example 510]: the IC50 was 78 nM in experiment [1], 17 nM in experiment [2], 1010 nM in experiment [3] (setting [5]) and over 31600 nM in experiment [4] (setting [6]).

Regarding `Nc1cncc(-c2ccc3[nH]nc(-c4cncc(N5CCC(N)CC5)n4)c3c2)c1` [Example 73, 5-(3-(6-(4-amino-1-piperidinyl)-2-pyrazinyl)-1H-indazol-5-yl)-3-pyridinamine], the IC50 in experiment [1] (enzyme assay, Pim-2) was 3 nM; in experiment [2] (enzyme assay, Pim-1) it was 1 nM; in experiment [3] (setting [7]), 885 nM; in experiment [4] (setting [8]) it was over 31600 nM.

Take `FC(F)(F)c1ccccc1-c1ccc2[nH]nc(-c3cncc(O[C@H]4CNCCC45CC5)n3)c2c1` [Example 407]: the IC50 in experiment [1] is 51 nM; in experiment [2], 20 nM; in experiment [3] (setting [5]) it was 2070 nM; in experiment [4] (setting [6]) it was over 15800 nM.

Regarding `COc1cc(OC)cc(-c2ccc3[nH]cc(-c4cncc(O[C@@H]5CCCNC5)n4)c3c2)c1` [Example 294], the IC50 in experiment [1] came to 26 nM; in experiment [2], 7 nM; in experiment [3] (setting [5]) it was 521 nM; in experiment [4] (setting [6]), 9440 nM.

In the case of `c1cc2[nH]nc(-c3cncc(NC4CC4)n3)c2cc1-c1cncc(C2CC2)n1` [Example 391, N-cyclopropyl-6-(5-(6-cyclopropyl-2-pyrazinyl)-1H-indazol-3-yl)-2-pyrazinamine], the IC50 in experiment [1] is 12 nM; in experiment [2] it was 2 nM; in experiment [3] (setting [5]), 114 nM; in experiment [4] (setting [6]), over 10000 nM.

Regarding `O=c1cc(-c2c[nH]c3ccc(-c4c(F)cccc4F)cc23)nc(N[C@@H]2CCCNC2)[nH]1` [Example 279, (R)-6-(5-(2,6-difluorophenyl)-1H-indol-3-yl)-2-(piperidin-3-ylamino)pyrimidin-4(3H)-one], the IC50 in experiment [2] is 1 nM; in experiment [3] (setting [5]), 2400 nM; in experiment [4] (setting [6]) it was over 31600 nM.

With `Nc1cncc(-c2ccc3[nH]nc(-c4cncc(N5CCC(N)CC5)n4)c3c2)n1` [Example 508], the IC50 is 1 nM in experiment [1], 1370 nM in experiment [3] (setting [5]) and over 31600 nM in experiment [4] (setting [6]).

Take `NC1CCN(c2cncc(-c3n[nH]c4ccc(-c5cncc(NC6CC6)n5)cc34)n2)CC1` [Example 509]: the results for the IC50 in experiment [1], in experiment [3] (setting [5]) and in experiment [4] (setting [6]) were 6 nM, 51 nM and 4230 nM, respectively.

For `CC(C)OC(=O)c1ccc2[nH]nc(-c3cncc(NC4CCNCC4)n3)c2c1` [Example 560], the IC50 in experiment [1] amounted to 5 nM; in experiment [3] (setting [5]) it was 394 nM; in experiment [4] (setting [6]), 4780 nM.

Take `c1cc2[nH]nc(-c3cncc(N[C@@H]4CCCNC4)n3)c2cc1-c1cncc(C2CC2)n1` [Example 243, 6-(5-(6-cyclopropyl-2-pyrazinyl)-1H-indazol-3-yl)-N-((3R)-3-piperidinyl)-2-pyrazinamine]: the IC50 in experiment [1] is 8 nM; in experiment [3] (setting [5]) it was 99 nM; in experiment [4] (setting [6]) it was 5590 nM.

Regarding `COC(=O)c1ccc2[nH]nc(-c3cncc(NC4CCNCC4)n3)c2c1` [Example 559], the IC50 in experiment [1] came to 1 nM; in experiment [3] (setting [5]) it was 202 nM; in experiment [4] (setting [6]), 8120 nM.

Consider `c1cc2[nH]nc(-c3cncc(NC4CCNCC4)n3)c2cc1-c1cncc(C2CC2)n1` [Example 369, 6-(5-(6-cyclopropyl-2-pyrazinyl)-1H-indazol-3-yl)-N-4-piperidinyl-2-pyrazinamine], for which the IC50 amounted to 1 nM in experiment [1], 83 nM in experiment [3] (setting [5]) and 3700 nM in experiment [4] (setting [6]).

Turning to `CC(C)Oc1cncc(-c2ccc3[nH]nc(-c4cncc(N5CCC(N)CC5)n4)c3c2)n1` [Example 5, 1-(6-(5-(6-isopropoxypyrazin-2-yl)-1H-indazol-3-yl)pyrazin-2-yl)piperidin-4-amine], the IC50 amounted to 16 nM in experiment [1] (enzyme assay, Pim-2); 45 nM in experiment [3] (setting [7]); 5440 nM in experiment [4] (setting [8]).

For `NC1CCN(c2cncc(-c3n[nH]c4ccc(-c5cncc(C6CC6)n5)cc34)n2)CC1` [Example 503, 1-(6-(5-(6-cyclopropyl-2-pyrazinyl)-1H-indazol-3-yl)-2-pyrazinyl)-4-piperidinamine], the values for the IC50 in experiment [1], in experiment [3] (setting [5]) and in experiment [4] (setting [6]) were 2 nM, 76 nM and 3680 nM, respectively.

Values taken from US9090593B2, “Bicyclic compounds as Pim inhibitors” (AMGEN INC., priority 2010, dated 2015).
